Key:
[1] = target: CYP2D6 (Homo sapiens, UniProt P10635); experiment: CYP inhibition CYP2D6 (CEREP); type: in vitro ADME; settings: human, recombinant CYP2D6, human recombinant CYP, single concentration (typically 10 μM); read-out: CYP 2D6 (% inhibition of Control)
Experimental: (§1) All the assays were conducted at CEREP (CEREP, France and USA). Metabolic compound stability was tested in human (CEREP, Ref 607) and mouse (CEREP, Ref: 806) microsomes. Inhibition of human drug-metabolizing cytochromes P450 was tested on the five most commonly responsible enzymes of metabolism of xenobiotics, CYP1A2 (CEREP, Ref 389), CYP2C9 (CEREP, Ref 412), CYP2C19 (CEREP, Ref 390), CYP2D6 (CEREP, Ref 1338) and CYP3A4 (CEREP, Ref 391).
(§2) Briefly, CEREP's CYP inhibition assay uses traditional probe substrates, which are specific to individual CYP isoforms. 3-cyano-7-ethoxycoumarin is mainly catalyzed by CYP1A2 and CYP2C19, 3-[2-(N,N-diethyl-N-methylammonium)ethyl]-7-methoxy-4-methylcoumarin for CYP2C9 and CYP2D6 and finally, 7-benzyloxy-4-trifluoromethylcoumarin is pathway catalyzed predominantly by CYP3A4. The inhibition assays were performed with human recombinant CYP isoforms preparations. HPLC MS/MS methods are used to detect metabolites in these assays. Compounds were tested at single concentrations (typically 10 μM) and data were expressed as percent of control inhibition.

[2] = target: T1, CYP1A2 (Homo sapiens, UniProt P05177); experiment: CYP inhibition CYP1A2 (CEREP); type: in vitro ADME; settings: human, recombinant CYP1A2, probe 3-cyano-7-ethoxycoumarin, single concentration (typically 10 μM), read-out: CYP 1A2 (% inhibition of Control)
T1 sequence (P05177 1-516): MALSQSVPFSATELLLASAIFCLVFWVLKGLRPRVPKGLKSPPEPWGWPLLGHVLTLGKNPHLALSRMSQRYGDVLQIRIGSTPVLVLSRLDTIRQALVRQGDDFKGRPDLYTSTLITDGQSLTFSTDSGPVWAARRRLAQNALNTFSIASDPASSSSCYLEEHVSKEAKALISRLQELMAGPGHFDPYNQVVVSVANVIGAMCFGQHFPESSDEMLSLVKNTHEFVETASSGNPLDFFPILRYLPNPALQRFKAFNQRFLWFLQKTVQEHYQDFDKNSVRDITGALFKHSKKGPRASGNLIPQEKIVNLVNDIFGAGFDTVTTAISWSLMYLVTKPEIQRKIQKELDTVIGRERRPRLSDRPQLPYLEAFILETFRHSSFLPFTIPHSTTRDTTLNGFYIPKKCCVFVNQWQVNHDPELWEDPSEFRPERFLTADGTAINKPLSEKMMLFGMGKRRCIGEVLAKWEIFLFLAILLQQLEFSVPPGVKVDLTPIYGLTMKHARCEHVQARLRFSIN
Experimental: as §1, §2

[3] = target: CYP2C19 (Homo sapiens, UniProt P33261); experiment: CYP inhibition CYP2C19 (CEREP); type: in vitro ADME; settings: human, recombinant CYP2C19, probe 3-cyano-7-ethoxycoumarin, single concentration (typically 10 μM), read-out: CYP 2C19 (% inhibition of Control)
CYP2C19, sequence (P33261 whole entry): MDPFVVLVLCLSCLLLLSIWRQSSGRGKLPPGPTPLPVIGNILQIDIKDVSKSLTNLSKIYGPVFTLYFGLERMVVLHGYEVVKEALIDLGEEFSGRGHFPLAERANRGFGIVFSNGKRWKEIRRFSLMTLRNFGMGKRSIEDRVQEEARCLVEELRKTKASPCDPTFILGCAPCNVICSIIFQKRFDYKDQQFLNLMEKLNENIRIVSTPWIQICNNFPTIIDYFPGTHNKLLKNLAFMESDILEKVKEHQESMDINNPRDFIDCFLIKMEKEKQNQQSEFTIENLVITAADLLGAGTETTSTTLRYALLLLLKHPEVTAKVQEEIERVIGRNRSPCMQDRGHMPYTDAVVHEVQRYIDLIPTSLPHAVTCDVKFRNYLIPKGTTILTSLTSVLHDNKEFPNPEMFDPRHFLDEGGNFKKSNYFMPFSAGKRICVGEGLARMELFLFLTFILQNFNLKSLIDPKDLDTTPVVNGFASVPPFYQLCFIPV
Experimental: as §1, §2

[4] = target: CYP3A4 (Homo sapiens, UniProt P08684); experiment: CYP inhibition CYP3A4 (CEREP); type: in vitro ADME; settings: human, recombinant CYP3A4, probe 7-benzyloxy-4-trifluoromethylcoumarin, single concentration (typically 10 μM), read-out: CYP 3A4 (% inhibition of Control)
CYP3A4, sequence (P08684 whole entry): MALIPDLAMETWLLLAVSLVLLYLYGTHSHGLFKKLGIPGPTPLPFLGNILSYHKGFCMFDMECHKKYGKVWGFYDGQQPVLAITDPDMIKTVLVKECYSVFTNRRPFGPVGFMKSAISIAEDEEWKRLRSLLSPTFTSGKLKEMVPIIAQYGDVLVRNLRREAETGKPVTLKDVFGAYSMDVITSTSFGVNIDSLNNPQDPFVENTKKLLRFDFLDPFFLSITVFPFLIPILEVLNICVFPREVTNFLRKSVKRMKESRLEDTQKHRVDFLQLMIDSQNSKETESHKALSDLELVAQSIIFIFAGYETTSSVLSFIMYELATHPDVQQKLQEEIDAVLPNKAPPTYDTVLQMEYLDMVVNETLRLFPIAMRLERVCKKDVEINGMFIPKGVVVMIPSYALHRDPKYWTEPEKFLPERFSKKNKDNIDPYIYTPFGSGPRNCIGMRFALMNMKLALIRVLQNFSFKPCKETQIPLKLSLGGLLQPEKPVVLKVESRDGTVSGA
Experimental: as §1, §2

[5] = target: T2, human RORγt (Homo sapiens, UniProt P51449); experiment: IL-17 secretion from EL4 murine lymphoma overexpressing human RORγt; type: cell-based; parameters: expressed in transfected cells; host or cells: EL-4 murine lymphoma; settings: IL-17 secretion inhibition, PMA and ionomycin stimulation, 24 h
T2 sequence (P51449 1-497 isoform P51449-2): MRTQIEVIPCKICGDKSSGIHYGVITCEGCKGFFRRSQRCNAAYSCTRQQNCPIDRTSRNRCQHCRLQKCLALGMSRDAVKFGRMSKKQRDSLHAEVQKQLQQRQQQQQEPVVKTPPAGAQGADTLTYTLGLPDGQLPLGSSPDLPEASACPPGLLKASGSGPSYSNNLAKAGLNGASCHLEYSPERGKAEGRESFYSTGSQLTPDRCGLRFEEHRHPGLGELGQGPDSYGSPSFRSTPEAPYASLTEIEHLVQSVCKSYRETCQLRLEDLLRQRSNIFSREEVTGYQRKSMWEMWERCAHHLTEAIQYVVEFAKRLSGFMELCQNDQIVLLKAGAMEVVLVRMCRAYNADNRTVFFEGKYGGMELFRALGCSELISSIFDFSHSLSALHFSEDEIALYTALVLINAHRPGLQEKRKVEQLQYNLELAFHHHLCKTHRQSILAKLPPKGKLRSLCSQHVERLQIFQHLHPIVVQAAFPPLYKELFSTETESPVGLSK
Procedure, shortened: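 EL4 murine lymphoma cells electroporated with hRORγt plasmid, seeded 150000 cells/well, pretreated with compound, then stimulated with PMA (10 ng/mL) and ionomycin (1 μM final) with compound for a further 24 h at 37° C. IL-17 in supernatant measured by HTRF or ELISA.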

[6] = target: CYP2C9 (Homo sapiens, UniProt P11712); experiment: CYP inhibition CYP2C9 (CEREP); type: in vitro ADME; settings: human, recombinant CYP2C9, human recombinant CYP, single concentration (typically 10 μM); read-out: CYP 2C9 (% inhibition of Control)
CYP2C9, sequence (P11712 whole entry): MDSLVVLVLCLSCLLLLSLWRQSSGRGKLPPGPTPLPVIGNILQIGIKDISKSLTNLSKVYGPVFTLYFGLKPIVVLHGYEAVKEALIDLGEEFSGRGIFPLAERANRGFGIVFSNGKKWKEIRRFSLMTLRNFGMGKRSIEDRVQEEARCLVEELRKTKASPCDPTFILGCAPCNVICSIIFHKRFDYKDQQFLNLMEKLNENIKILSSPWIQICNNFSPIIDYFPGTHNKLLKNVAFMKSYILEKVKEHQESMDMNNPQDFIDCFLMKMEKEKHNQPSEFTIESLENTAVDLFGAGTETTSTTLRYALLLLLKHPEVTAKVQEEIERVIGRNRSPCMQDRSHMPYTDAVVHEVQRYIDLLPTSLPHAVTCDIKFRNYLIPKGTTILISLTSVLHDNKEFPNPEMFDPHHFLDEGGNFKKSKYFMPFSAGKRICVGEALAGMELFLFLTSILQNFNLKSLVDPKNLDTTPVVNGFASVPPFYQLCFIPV
Experimental: as §1, §2

CYP2D6, sequence (P10635 whole entry): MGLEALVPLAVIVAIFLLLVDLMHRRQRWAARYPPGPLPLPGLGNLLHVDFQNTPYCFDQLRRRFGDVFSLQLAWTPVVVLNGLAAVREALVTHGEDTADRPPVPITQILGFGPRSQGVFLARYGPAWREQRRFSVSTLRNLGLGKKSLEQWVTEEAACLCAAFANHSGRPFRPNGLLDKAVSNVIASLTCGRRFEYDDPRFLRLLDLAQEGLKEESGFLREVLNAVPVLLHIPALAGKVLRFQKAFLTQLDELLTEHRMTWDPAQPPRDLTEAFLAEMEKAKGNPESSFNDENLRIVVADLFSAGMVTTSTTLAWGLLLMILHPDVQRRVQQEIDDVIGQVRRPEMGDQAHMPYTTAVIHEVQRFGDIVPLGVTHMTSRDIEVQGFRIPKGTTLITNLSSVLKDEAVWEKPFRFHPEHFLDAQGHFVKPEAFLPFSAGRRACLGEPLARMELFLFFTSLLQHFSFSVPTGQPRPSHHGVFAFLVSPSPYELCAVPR

Row | Structure (SMILES) | inhibition at 10 µM [1] [%] | inhibition at 10 µM [2] [%] | inhibition at 10 µM [3] [%] | inhibition at 10 µM [4] [%] | IC50 [5] [nM] | inhibition at 10 µM [6] [%]
1 | O=C(O)CCc1c[nH]c2ccc(CC(=O)NC(c3ccccc3)c3ccccc3N3CCCCC3)cc12 (stereo not drawn) [Cpd. 1, 3-{5-[({phenyl[2-(piperidin-1-yl)phenyl]methyl}carbamoyl)methyl]-1H-indol-3-yl}propanoic acid] | 49 | 1 | 13 | 19 | 1000 to 10000 | 12
2 | O=C(O)CCc1c[nH]c2ccc(CC(=O)NC(c3ccccc3)c3ccc(C(F)(F)F)cc3N3CCCC3)cc12 (stereo not drawn) [Cpd. 48, 3-{5-[({phenyl[2-(pyrrolidin-1-yl)-4-(trifluoromethyl)phenyl]methyl}carbamoyl)methyl]-1H-indol-3-yl}propanoic acid] | 78.9 | 10.7 | 35 | 33.7 | 1000 to 10000 | 24.6
3 | O=C(O)CCc1c[nH]c2ccc(CC(=O)NC(c3cccc(F)c3)c3ccccc3N3CCCCC3)cc12 (stereo not drawn) [Cpd. 3, 3-[5-({[(3-fluorophenyl)[2-(piperidin-1-yl)phenyl]methyl]carbamoyl}methyl)-1H-indol-3-yl]propanoic acid] | -2 | 2.9 | 58.8 | 60.9 | 1000 to 10000 | 52.7
4 | Cc1ccc(C(NC(=O)Cc2ccc3[nH]cc(CCC(=O)O)c3c2)c2ccccc2)c(N2CCCC2)c1 (stereo not drawn) [Cpd. 5, 3-{5-[({[4-methyl-2-(pyrrolidin-1-yl)phenyl](phenyl)methyl}carbamoyl)methyl]-1H-indol-3-yl}propanoic acid] | 13.5 | 4.4 | 25 | 25.8 | < 1000 | 35.9
5 | O=C(O)CCc1c[nH]c2ccc(CC(=O)NC(c3ccccc3)c3ccc(Br)cc3N3CCCC3)cc12 (stereo not drawn) [Cpd. 50, 3-{5-[({[4-bromo-2-(pyrrolidin-1-yl)phenyl](phenyl)methyl}carbamoyl)methyl]-1H-indol-3-yl}propanoic acid] | 26.5 | 0.9 | 32.3 | 36.8 | < 1000 | 15.8
6 | CC(C)CC(NC(=O)Cc1ccc2[nH]cc(CCC(=O)O)c2c1)c1ccccc1N1CCCCC1 (stereo not drawn) [Cpd. 29, 3-{5-[({3-methyl-1-[2-(piperidin-1-yl)phenyl]butyl}carbamoyl)methyl]-1H-indol-3-yl}propanoic acid] | 18.2 | -8.2 | 14.1 | 47.2 | 1000 to 10000 | 14.9
7 | COc1ccc(C(NC(=O)Cc2ccc3[nH]cc(CCC(=O)O)c3c2)c2ccccc2)c(N2CCCCC2)c1 (stereo not drawn) [Cpd. 111, 3-{5-[({[4-methoxy-2-(piperidin-1-yl)phenyl](phenyl)methyl}carbamoyl)methyl]-1H-indol-3-yl}propanoic acid] | 7.5 | -12.4 | 29.4 | 40.1 | 1000 to 10000 | 28.2
8 | Cc1ccc(C(NC(=O)Cc2ccc3[nH]cc(CCC(=O)O)c3c2)c2ccccc2)c(N(C)C)c1 (stereo not drawn) [Cpd. 192, 3-{5-[({[2-(dimethylamino)-4-methylphenyl](phenyl)methyl}carbamoyl)methyl]-1H-indol-3-yl}propanoic acid] | 4.3 | -1.9 | 31.2 | 30.9 | < 1000 | 28.6
9 | O=C(O)CCCc1c[nH]c2ccc(CC(=O)NC(c3ccccc3)c3ccccc3N3CCCCC3)cc12 (stereo not drawn) [Cpd. 212, 4-{5-[({phenyl[2-(piperidin-1-yl)phenyl]methyl}carbamoyl)methyl]-1H-indol-3-yl}butanoic acid] | -6.3 | -5.4 | 32.2 | 31 | 1000 to 10000 | 29.5
10 | Cc1ccc(C(NC(=O)Cc2ccc3[nH]cc(CCC(=O)O)c3c2)c2ccccc2)c(N2CCCCC2)c1 (stereo not drawn) [Cpd. 77, 3-{5-[({[4-methyl-2-(piperidin-1-yl)phenyl](phenyl)methyl}carbamoyl)methyl]-1H-indol-3-yl}propanoic acid] | 6.2 | -0.9 | 28.1 | 31.3 | < 1000 | 23.2
